In PMC11613329, “An Optimized Marinopyrrole A Derivative Targets 6-Phosphoglucosamine Synthetase to Inhibit Methicillin-Resistant Staphylococcus aureus” (ACS Central Science, 2024):
pKd: −log10 of the molar value.

Key:
[1] = molecular target: T1, 6-Phosphoglucosamine synthetase (GlmS) (Staphylococcus aureus, UniProt Q5HE49); assay: in vitro GlmS enzymatic assay, positive control; assay type: biochemical
T1 sequence (Q5HE49 2-601): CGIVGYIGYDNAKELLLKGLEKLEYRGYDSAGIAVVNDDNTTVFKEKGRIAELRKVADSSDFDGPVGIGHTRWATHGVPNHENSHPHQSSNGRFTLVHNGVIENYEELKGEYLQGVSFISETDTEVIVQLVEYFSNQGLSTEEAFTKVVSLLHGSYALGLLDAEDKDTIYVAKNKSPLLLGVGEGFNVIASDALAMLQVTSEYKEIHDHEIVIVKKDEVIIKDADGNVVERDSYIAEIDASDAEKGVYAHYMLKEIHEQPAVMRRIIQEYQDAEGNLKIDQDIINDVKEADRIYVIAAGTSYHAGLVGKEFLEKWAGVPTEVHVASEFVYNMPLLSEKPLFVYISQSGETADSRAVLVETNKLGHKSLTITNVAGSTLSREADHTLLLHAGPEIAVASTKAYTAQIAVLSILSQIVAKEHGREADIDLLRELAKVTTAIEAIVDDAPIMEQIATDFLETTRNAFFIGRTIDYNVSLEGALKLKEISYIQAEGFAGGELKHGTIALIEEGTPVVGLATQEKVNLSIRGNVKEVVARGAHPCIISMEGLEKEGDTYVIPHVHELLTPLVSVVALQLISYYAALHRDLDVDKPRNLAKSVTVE

[2] = molecular target: T1, 6-Phosphoglucosamine synthetase (GlmS); assay: SPR with purified GlmS; also thermal stability shift and enzymatic inhibition (IC50 […]); assay type: binding

| SMILES | in vitro GlmS enzymatic assay, positive control [1] | pKd [2] |
| --- | --- | --- |
| COC(=O)/C=C/C(=O)NC[C@H](N)C(=O)O [FMDP, N^3-(4-metoxyfumaroyl)-(S)-2,3-diaminopropanoic acid] | The reported FMDP was used as a positive control. | – |
| O=C(c1ccc(C(F)(F)F)cc1O)c1[nH]c(Cl)c(Cl)c1-n1c(C(=O)c2ccc(C(F)(F)F)cc2O)cc(Cl)c1Cl [MA-D1] | – | 6.41 |
